Test results published in ChEMBL document CHEMBL1129549, “Complexes of HIV-1 reverse transcriptase with inhibitors of the HEPT series reveal conformational changes relevant to the design of potent non-nucleoside inhibitors” (J Med Chem, 1996).

Target: Human immunodeficiency virus type 1 reverse transcriptase (Human immunodeficiency virus 1, UniProt Q72547)
Assay: Inhibitory activity against HIV-1 reverse transcriptase

IC50	Structure (SMILES)
0.006 µM	CC(C)c1c(Cc2ccccc2)n(COCc2ccccc2)c(=O)[nH]c1=O
17 µM	Cc1c(Sc2ccccc2)n(COCCO)c(=O)[nH]c1=O [HEPT]
